Assays:
Caco-2 cells [1] = assay: Effects of 2'-FL on glycocalyx development in intestinal epithelial cells (qPCR of glycocalyx development genes); assay type: cell-based, human
Experimental: (§1) Caco-2 cell culture: human colon adenocarcinoma cells Caco-2 were cultured in MEM complete medium containing 20% high-quality fetal bovine serum, grown in 25 cm^2 cell culture flasks and incubated in a carbon dioxide incubator at 37 °C, 5% CO2, and 95% relative humidity. The culture medium was changed every one or two days. When the cells reach 80%-90% confluence, the cells were digested with 0.25% trypsin digestion solution and subcultured at a ratio of 1:3.
1.1 Experiments: Caco-2 cells were adjusted to a density of 1 × 10^5 cells/cm^2 and inoculated in 24-well plates. According to groups, 2'-FL at concentrations of 0.6 mg/mL, 1.2 mg/mL, and 2.4 mg/mL was added to MEM complete medium, respectively. After incubation for 3 days, MEM medium was served as a blank control. Total RNA was extracted from the cells and reverse transcribed. Transcriptional levels of genes related to glycocalyx development, including glypican 1 (gpc1), hyaluronic acid synthases (has1, has2 and has3), and exostosin glycosyltransferases (ext1 and ext2) in the Caco-2 cells were measured by qPCR. qPCR primer sequences were shown in Table 1.
(§2) qPCR kit manufacturer: Nanjing Vazyme Biotechnology Co., Ltd.; Catalog number: AceQ Universal U+ Probe Master Mix V2; amplification program: step 1: 37 °C for 2 min, and cycle number 1; step 2: 95 °C for 5 min, and cycle number 1; and step 3: 95 °C for 10 s, 60°C for 30 s, and cycle number 45.

Caco-2 cells [2] = assay: Preventive effects of 2'-FL on glycocalyx damage caused by LPS (qPCR of glycocalyx development genes); assay type: cell-based, human; conditions: for transcriptional level of gpc1: then 100 ng/mL LPS 24 h; for transcriptional level of ext2 / transcriptional level of has2 / transcriptional level of has3 / transcription level of has1 / transcriptional level of ext1: then LPS
Experimental: as §1, §2
2.1 Experiments: Caco-2 cells were adjusted to a density of 1 × 10^5 cells/cm^2 and inoculated in 24-well plates. According to groups, 2'-FL at concentrations of 0.6 mg/mL, 1.2 mg/mL, and 2.4 mg/mL was added to MEM complete medium, respectively. After incubation for 3 days, culture supernatant was removed, and fresh MEM complete medium with a final concentration of 100 ng/mL LPS was added and they are co-incubated for 24 h. Cells with added LPS but without 2'-FL were designated as a model group, and cells without added LPS or 2'-FL were designated as a blank group. Total RNA was extracted from the cells and reverse transcribed. Transcriptional levels of genes related to glycocalyx development, including glypican 1 (gpc1), hyaluronic acid synthases (has1, has2 and has3), and exostosin glycosyltransferases (ext1 and ext2), in the Caco-2 cells were measured by qPCR.

[3] = all three concentrations of 2'-FL (0.6, 1.2, 2.4 mg/mL), 3 days, vs blank control, p < 0.05
[4] = of 0.6, 1.2, 2.4 mg/mL tested, effect decreases with increasing concentration
[5] = summary statement, 0.6mg/mL-1.2 mg/mL
[6] = 2.4 mg/mL 2'-FL, compared to the model group, p < 0.05
[7] = different concentrations of 2'-FL 3 days, compared with the blank group
[8] = prevention group with different concentrations of 2'-FL, vs the blank group, p > 0.05
[9] = summary statement, 0.6mg/mL-2.4 mg/mL

C[C@@H]1O[C@@H](O[C@H]2[C@H](O[C@H]3[C@H](O)[C@@H](O)C(O)O[C@@H]3CO)O[C@H](CO)[C@H](O)[C@@H]2O)[C@@H](O)[C@H](O)[C@@H]1O (stereo partly shown) [2'-FL, 2'-fucosyllactose]
transcriptional level of ext1 mRNA (Caco-2 cells [1]; [3]): significantly upregulate
transcriptional level of ext2 mRNA (Caco-2 cells [1]; [3]): significantly upregulate
transcriptional level of gpc1 mRNA (Caco-2 cells [1]; [3]): significantly upregulate
transcriptional level of has1 mRNA (Caco-2 cells [1]; [3]): significantly upregulate
transcriptional level of has2 mRNA (Caco-2 cells [1]; [3]): significantly upregulate
transcriptional level of has3 mRNA (Caco-2 cells [1]; [3]): significantly upregulate
concentration at which the upregulation effect on the transcriptional level of ext1 reaches a maximum (Caco-2 cells [1]; [4]): 0.6 mg/mL
concentration at which the upregulation effect on the transcriptional level of ext2 reaches a maximum (Caco-2 cells [1]; [4]): 0.6 mg/mL
concentration at which the upregulation effect on the transcriptional level of has1 reaches a maximum (Caco-2 cells [1]; [4]): 0.6 mg/mL
concentration at which the upregulation effect on the transcriptional level of has2 reaches a maximum (Caco-2 cells [1]; [4]): 0.6 mg/mL
concentration at which the upregulation effect on the transcriptional level of has3 reaches a maximum (Caco-2 cells [1]; [4]): 0.6 mg/mL
concentration at which the upregulation effect on the transcriptional level of gpc1 reaches a maximum (Caco-2 cells [1]; of 0.6, 1.2, 2.4 mg/mL tested, first increasing and then decreasing): 1.2 mg/mL
transcriptional level of ext1 (Caco-2 cells [1]; summary statement, 0.6 mg/mL): significantly upregulate
transcriptional level of ext2 (Caco-2 cells [1]; summary statement, 0.6 mg/mL): significantly upregulate
transcriptional level of has1 (Caco-2 cells [1]; summary statement, 0.6 mg/mL): significantly upregulate
transcriptional level of has2 (Caco-2 cells [1]; summary statement, 0.6 mg/mL): significantly upregulate
transcriptional level of has3 (Caco-2 cells [1]; summary statement, 0.6 mg/mL): significantly upregulate
transcriptional level of gpc1 (Caco-2 cells [1]; [5]): significantly upregulate
transcriptional level of gpc1 (Caco-2 cells [2]; 0.6 mg/mL 2'-FL 3 days, compared with the blank group): significantly upregulate
transcriptional level of gpc1 (Caco-2 cells [2]; 1.2 mg/mL 2'-FL 3 days, compared with the blank group): significantly upregulate
transcriptional level of ext2 (Caco-2 cells [2]; 1.2 mg/mL 2'-FL, p<0.05): significantly upregulate
transcriptional level of has2 (Caco-2 cells [2]; [6]): significantly upregulated
transcriptional level of has3 (Caco-2 cells [2]; [6]): significantly upregulated
transcription level of has1 (Caco-2 cells [2]; 2.4 mg/mL 2'-FL, compared with the model group): significantly upregulated
transcriptional level of ext2 (Caco-2 cells [2]; 2.4 mg/mL 2'-FL, p<0.05): significantly upregulate
transcriptional level of ext1 (Caco-2 cells [2]; [7]): still upregulated
transcriptional level of ext2 (Caco-2 cells [2]; [7]): still upregulated
transcriptional level of gpc1 (Caco-2 cells [2]; different concentrations of 2'-FL (0.6, 1.2, 2.4 mg/mL) 3 days, compared with the blank group): still upregulated
transcriptional level of has2 (Caco-2 cells [2]; [8]): no significant differences
transcriptional level of has3 (Caco-2 cells [2]; [8]): no significant differences
transcription level of has1 (Caco-2 cells [2]; prevention groups with different concentrations of 2'-FL (0.6, 1.2, 2.4 mg/mL), compared with the blank group, p < 0.05): significantly downregulated
downregulation of the transcriptional level of gpc1 caused by LPS (Caco-2 cells [2]; [5]): significantly prevent downregulation
downregulation of the transcriptional level of ext1 caused by LPS (Caco-2 cells [2]; [9]): significantly prevent downregulation
downregulation of the transcriptional level of ext2 caused by LPS (Caco-2 cells [2]; [9]): significantly prevent downregulation
downregulation of the transcriptional level of has2 caused by LPS (Caco-2 cells [2]; [9]): significantly prevent downregulation
downregulation of the transcriptional level of has3 caused by LPS (Caco-2 cells [2]; [9]): significantly prevent downregulation
transcriptional level of ext1 (Caco-2 cells [2]; three concentrations of 2'-FL (0.6, 1.2, 2.4 mg/mL), p<0.05): significantly upregulate

— EP4809830A1, “USE OF 2'-FUCOSYLLACTOSE IN PROMOTING INTESTINAL DEVELOPMENT AND PREVENTING INTESTINAL DAMAGE” (Ausnutria Dairy (China) Co., Ltd., priority 2024, dated 2025)
